Assay: analog potency on TNFa NF-kB signaling – cell-based, revised, SAR follow-up (AID 2337)
`Cc1ccc(C)c(SCC(=O)OCC(=O)C(C#N)c2nc3ccccc3[nH]2)c1` (stereo not drawn) [MLS000392255] gave an IC50 greater than 20 µM.
`N#CC(C(=O)COC(=O)CSc1ccc2ccccc2c1)c1nc2ccccc2[nH]1` (stereo not drawn) [[3-cyano-3-(1,3-dihydrobenzimidazol-2-ylidene)-2-oxopropyl] 2-naphthalen-2-ylsulfanylacetate] showed an IC50 greater than 20 µM.
In the case of `CCOC1=CC=CC(C=NNC(=S)Nc2ccccc2[N+](=O)[O-])C1=O` (stereo not drawn) [MLS-0270696.0001], the IC50 is reported as 0.414 µM.
Compound `CCCOC1=CC(=O)C(C=NNC(=S)Nc2ccccc2[N+](=O)[O-])C=C1` (stereo not drawn) [1-(2-nitrophenyl)-3-[[(E)-(6-oxo-4-propoxy-1-cyclohexa-2,4-dienylidene)methyl]amino]thiourea] has an IC50 of 0.88 µM.
`Cc1cc(Br)ccc1SCC(=O)OCC(=O)C(C#N)c1nc2ccccc2[nH]1` (stereo not drawn) [2-[(4-bromo-2-methylphenyl)thio]acetic acid [3-cyano-3-(1,3-dihydrobenzimidazol-2-ylidene)-2-oxopropyl] ester] gave an IC50 greater than 20 µM.
Work on `Cc1ccc(O)c(/N=C/C2=CC(Cc3ccccc3)C=C([N+](=O)[O-])C2=O)c1` (stereo not drawn) [(6E)-6-[[(5-methyl-2-oxidanyl-phenyl)amino]methylidene]-2-nitro-4-(phenylmethyl)cyclohexa-2,4-dien-1-one] yielded an IC50 greater than 20 µM.
In the case of `Cc1cc(SCC(=O)OCC(=O)C(C#N)c2nc3ccccc3[nH]2)c(C)cc1Br` (stereo not drawn), the IC50 is reported as greater than 20 µM.
Work on `N#CC(C(=O)COC(=O)CSc1ccc(Cl)cc1)c1nc2ccccc2[nH]1` (stereo not drawn) [MLS-0208254.0001] yielded an IC50 greater than 20 µM.
